The values that follow come from US4058621A, “Iron complexes and foodstuffs containing them” (priority 1975, dated 1977).

Series [1] in a line: maximum amount of iron which can be complexed with galacturonic acid. Type of series: physicochemical. How it is done: 25.5 grams of high-purity galacturonic acid were dissolved in 300 ml of distilled water with the addition of solid sodium carbonate until a pH of 8 to 9 was reached. Separately, 24 grams of anhydrous ferric chloride were dissolved in 300 ml of distilled water and this solution was then added slowly, by dropping funnel, to the aforementioned solution of galacturonic acid, adjusting with solid sodium carbonate as needed to keep the mixture slightly alkaline, e.g. pH 8-9, and keeping the mixture stirred moderately. A beautiful brown-red solution was thus obtained. In order to ascertain the maximum amount of iron which can be complexed with galacturonic acid, a solution of 189.9 grams of anhydrous ferric chloride was dissolved in 1500 ml of distilled water, and this solution was added gradually to the above solution, with good stirring, and always adjusting the alkalinity to a pH of 8-9. […] A light-brown precipitate then appeared which, however, was dissolved again completely in about an hour's time and a perfectly clear, deep brown-red solution again resulted. From the total amounts of galacturonic acid used and ferric chloride solution consumed in the test, it was calculated that one mol weight of galacturonic acid will complex three atom weights of iron. Actually, 2,989 atom-weights of iron were consumed, an amount well within experimental error.

The subject of a further series is rabbits. To be noted: intravenous route; cited from earlier work.
The subject of the next series is humans. To be noted: not without risk of some serious side effects; cited from earlier work.
In the next series the test system is rats. Conditions: oral ingestion; cited from earlier work.
A further series has as its system anemic rat. Nature of the series: curative test: bioavailability of iron / hemoglobin repletion in the anemic rat (cyanomethemoglobin method of Drabkin). In kind it is in vivo, rat (male albino, Wistar-derived stock). To be noted: for improvement in hemoglobin: 0.2 mg iron per day. An excerpt:
The "curative" test results can be obtained in an oral administration technique, wherein the test animals are fed a prescribed iron-poor diet and are brought to an anemic condition through a controlled experimental technique. […] This test technique is generally standardized and has been used, with many variations, to determine bioavailability of iron in a variety of hematinics.
Reagent grade ferrous sulfate heptahydrate (Fisher Scientific Co.) was used without further purification at the calculated iron content of 20.1%.
Weanling male albino rats (Wistar-derived stock weighing between 45 and 55 grams) were placed in individual cages (newly galvanized) and provided with food and distilled water, ad libitum. The iron-low diet was that described by Pla and Fritz (J. Assoc. Offic. Anal. Chem. 54, 18 (1971). Weekly determination of hemoglobin content in tail blood was determined by the cyanomethemoglobin method of Drabkin adapted to 0.02 ml samples as recommended by these authors.
18 rats were selected for the test from a larger number to provide three matched groups of six, each having essentially equal initial hemoglobin values.
The solution prepared on Fridays was also dosed on Saturdays and Sundays. The solutions were administered by intragastric intubulation. The Negative Control Group received sham treatment consisting of plain water.
Body weights of all animals were recorded weekly and hemoglobin determinations were repeated after two and four weeks of dosing.

For the compound `O=C[C@H](O)[C@@H](O)[C@@H](O)[C@H](O)C(=O)O` [galacturonic acid], the “iron actually consumed per mol weight of galacturonic acid” value in series [1] (pH 8-9) is listed as 2,989 atom-weights of iron. The “iron complexed per mol weight of galacturonic acid” value in series [1] (pH 8-9, calculated from amounts consumed) was “three”.
ferrous sulfate: the figures for the LD50 with rabbits and in the series with rats were 99 milligrams per kilogram of body weight and 5,000 milligrams per kilogram of body weight, respectively. In addition, in the series on humans, the tolerated oral dosage entry is listed as “about 300 milligrams”. Further, the improvement in hemoglobin entry in the series with anemic rat (after four weeks of dosing) and in the series on anemic rat (after two weeks of dosing) was “significant improvement” throughout. Moreover, the body weight gain result in the series with anemic rat (as compared to the Example 1 Group, differences were nominal) is on record as “averaged slightly better”. The “efficacy in reversing mild deficiency anemia” value in the series on anemic rat (conclusion of the test) is given as “reversing mild deficiency anemia”.
